Test results published in ChEMBL document CHEMBL3352096, “New 9,19-cycloartenol glycosides isolated from the roots of Cimicifuga simplex and their anti-inflammatory effects” (Bioorg Med Chem Lett, 2014).
Active and inactive are the calls of the source.

What was measured:
Assay type in all cases: functional, cell-based
RAW [1] = assay: Antiinflammatory activity against mouse RAW cells assessed as inhibition of LPS-induced IL-23 production at 10 uM by Q-PCR analysis
RAW [2] = assay: Antiinflammatory activity against mouse RAW cells assessed as inhibition of LPS-induced IL-6 production at 10 uM by Q-PCR analysis
RAW [3] = assay: Antiinflammatory activity against mouse RAW cells assessed as inhibition of LPS-induced TNFalpha production at 10 uM by Q-PCR analysis

Measured: inhibition

CC(=O)O[C@@H]1C[C@@]23C[C@@]24CC[C@H](O[C@@H]2OC[C@@H](O)[C@H](O)[C@H]2O)C(C)(C)[C@@H]4CC=C3[C@]2(C)C[C@]3(O)O[C@H](C(=O)[C@@H]4OC4(C)C)[C@@H](C)[C@@H]3[C@@]12C
active: all assays above

CC(=O)O[C@@H]1C[C@@]23C[C@@]24CC[C@H](O[C@@H]2O[C@H](CO)[C@H](O)[C@H](O)[C@H]2O)C(C)(C)[C@@H]4CC[C@H]3[C@]2(C)C[C@]3(O)O[C@H](C(=O)[C@@H]4OC4(C)C)[C@@H](C)[C@@H]3[C@@]12C
active: all assays above
